Where no end group is shown, it is not given here. The star is where a group is joined. Cam = NC(=O)C*
Assays:
[1] = Amount of migration to brain quantified by GLP-2 ELISA; assay type: in vivo; details: 6.0 nmol/mouse intranasal, brain isolated 20 minutes after administration
Description: Mice were intranasally administered with 16% DMSO or GLP-2 derivatives (6.0 nmol/mouse). The brain was isolated 20 minutes after the administration, and homogenized with BioMasher II (Nippi, Tokyo, Japan). A sample was prepared by performing centrifugal separation by 1000×g for 15 minutes and collecting a supernatant. The amount of a GLP-2 derivative in the sample was quantified using a GLP-2 ELISA kit. Specifically, a cleaning process including filling each well of a measurement plate with a cleaning fluid (350 μL) and suctioning the cleaning fluid with a pipette was performed three times. Subsequently, a labeled antigen solution (40 μL), a sample (25 μL) and a specific antibody solution (50 μL) were added in this order to the well and mixed. The measurement plate was tightly sealed and allowed to stand for 18 hours at 4° C. The cleaning process was performed three times, and a SA-HRP solution (100 μL) was added and allowed to permeate for 1.5 hours at room temperature (60 rpm). […] Finally, an enzyme reaction stop solution (100 μL) was added and an absorbance at 490 nm was measured with ARVO (PerkinElmer Japan Co., Ltd., Kanagawa, Japan) to calculate the concentration of a GLP-2 derivative.

[2] = Migration to central nervous system, optical imaging of brain sagittal sections (ICG-labelled derivatives); assay type: in vivo, mouse; details: 3.0 nmol/4 μL intranasal
Description: Administration solutions were prepared by completely dissolving a PAS-CPP-GLP-2 derivative (no sugar) labelled with ICG or a PAS-CPP-GLP-2 derivative (11-sugar) labelled with ICG in DMSO, and adjusting the final concentration of DMSO to 16% by adding PBS.
(§1) The concentration of a PAS-CPP-GLP-2 derivative (no sugar) or a PAS-CPP-GLP-2 derivative (11-sugar) was adjusted to 3.0 nmol/4 μL.
After anesthetizing mice with isoflurane using an all-in-one small animal anesthetizer, the administration solutions or 16% DMSO as a control was intranasally administered to the mice by the amount of 2 μL per nose cavity, 4 μL in total.
In order to observe the migration to the brain over time, the brain was isolated 5 minutes, 10 minutes, 20 minutes, 60 minutes and 90 minutes after the intranasal administration, respectively, and subjected to infiltration fixation with 4% paraformaldehyde (4% PFA) solution overnight. Subsequently, a sagittal section with a thickness of 2 mm at the left and the right from the center of the brain was prepared using a brain matrix (RBM-2000S, ASI). The section was placed in a dish and analyzed with an optical imaging apparatus (Clairvivo OPT plus, Shimadzu Corporation) at an excitation wavelength of 785 nm, fluorescence wavelength of 849 nm, and an exposure time: 6 seconds.

[3] = Solubility of GLP-2/GLP-1 derivatives with respect to aqueous medium (PBS); assay type: physicochemical
Description: Samples were prepared by dispensing a Milli-Q aqueous solution of PAS-CPP-GLP-2 (no sugar), PAS-CPP-GLP-2 (5-sugar) or PAS-CPP-GLP-2 (11-sugar) to a microtube by an amount of 5 nmol/tube, 30 nmol/tube, 60 nmol/tube, 120 nmol/tube or 200 nmol/tube, and freeze-drying the same. The freeze-dried samples were added with […] of PBS (Dulbecco's Phosphate Buffered Saline; Sigma-Aldrich, herein after the same), subjected to ultrasonic treatment, and allowed to stand overnight. Thereafter, the concentration of the peptide was measured. Specifically, a supernatant obtained by centrifuging the sample suspension was subjected to the measurement of OD (280 nm) with a spectrometer (NanoDrop™ 2000c spectrometer; Thermo Fisher Scientific K.K.)
Administration solutions were prepared by mixing a PAS-CPP-GLP-2 derivative (no sugar) or a PAS-CPP-GLP-2 derivative (11-sugar) with PBS. […] The concentration of each GLP-2 derivative was adjusted to 0.6 nmol/4 μL.
as §1

[4] = test system: 7-week-old male ddY mouse; experiment: Forced swim test (FST) after intranasal administration; assay type: in vivo; details: 16% DMSO in PBS, 0.6 nmol/mouse intranasal, 20 minutes before test session
Description: Administration solutions were prepared by completely dissolving PAS-CPP-GLP-2 derivative (no sugar) or PAS-CPP-GLP-2 derivatives (11-sugar, 5-sugar) in DMSO and adding PBS such that the final concentration of DMSO was 16% by mass. The concentration of each GLP-2 derivative was adjusted to 0.6 nmol/4 μL.
After anesthetizing mice with isoflurane using an all-in-one small animal anesthetizer (MK-AT210D, Muromachi Kikai Co., Ltd., hereinafter the same), the solution was intranasally administered to the mice. Specifically, the intranasal administration was performed by contacting a tip of the anesthetizer to a nasal cavity in a horizontal manner such that the solution was inhaled by spontaneous respiration, by the amount of 2 μL per nose cavity, 4 μL in total (0.6 nmol/mouse). […]
A 7-week-old male ddY mouse is placed in a transparent plastic cylinder with a diameter of 18 cm and a height of 50 cm containing water at a temperature of 25° C.±1° C. to a height of 7 cm, and is allowed to swim for 15 minutes. […] The behavior of the mouse is recorded over the test session with a video camera. […] The time during which the mouse is in a state of immobility (immobility time) is measured in the first 6 minutes from the start of the test session. The existence or non-existence of anti-depressant-like effects is determined by the length of the immobility time. […]

| amount of GLP-2 derivative in brain [1] | fluorescence in brain section ([2]; 20 minutes after administration) | fluorescence in brain section ([2]; 60 minutes after administration) | solubility with respect to PBS (FIG. 1) [3] | Substance | fluorescence in brain section ([2]; 10 minutes after administration) | immobility time / anti-depressant-like effect vs control group [4] |
| --- | --- | --- | --- | --- | --- | --- |
| below the detection limit | fluorescence was observed | fluorescence was not observed | not dissolved in PBS at all | FFLIPKGRRRRRRRRGGHADGSFSDEMNTILDNLAARDFINWLIQTKITDC(Cam)-OH [PAS-CPP-GLP-2 (no sugar), reference compound] | fluorescence was observed at a region around the hippocampus | – |
| – | – | – | – | glucagon-like peptide-2 (HADGSFSDEMNTILDNLAARDFINWLIQTKITD; GLP-2) | – | did not show a significant decrease in immobility time |

— patent publication US20240270811A1, “Glycosylated Neuropeptide Derivative, Pharmaceutical Composition, Intranasal/Nasal Drop Formulation, and Use of Pharmaceutical Composition” (Tokyo University of Science Foundation, priority 2021, published 2024)
